Laboratory results taken from ChEMBL document CHEMBL1201862, “PubChem BioAssay data set” (2004).
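All cell lines were grown in 96-well plates and treated with compound for 48 hours. The concentration for 50% growth inhibition is given as GI50.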 The source made the active and inactive calls. Cut-off read from the data, not from the text of the source: active = GI50 up to about 1.1 µM and inactive = higher.

Legend:
Assay in all cases: NCI anticancer screen, dose series, 48 h
SF-295 = test system: SF-295
T47D = test system: T47D
SW-620 = test system: SW-620
A498 = test system: A498
OVCAR-5 = test system: OVCAR-5
EKVX = test system: EKVX
COLO 205 = test system: COLO 205
OVCAR-3 = test system: OVCAR-3
SK-MEL-5 = test system: SK-MEL-5
HCT-116 = test system: HCT-116
ACHN = test system: ACHN
SF-539 = test system: SF-539
786-0 = test system: 786-0
CAKI-1 = test system: CAKI-1
HCT-15 = test system: HCT-15
MDA-MB-435 = test system: MDA-MB-435
SK-MEL-2 = test system: SK-MEL-2
TK-10 = test system: TK-10
OVCAR-4 = test system: OVCAR-4
NCI-H226 = test system: NCI-H226

Row | Structure (SMILES) | GI50 (SF-295) | GI50 (T47D) | GI50 (SW-620) | GI50 (A498) | GI50 (OVCAR-5) | GI50 (EKVX) | GI50 (COLO 205) | GI50 (OVCAR-3) | GI50 (SK-MEL-5) | GI50 (HCT-116) | GI50 (ACHN) | GI50 (SF-539) | GI50 (786-0) | GI50 (CAKI-1) | GI50 (HCT-15) | GI50 (MDA-MB-435) | GI50 (SK-MEL-2) | GI50 (TK-10) | GI50 (OVCAR-4) | GI50 (NCI-H226)
1 | COc1cccc(-c2nc(O)c3ccccc3n2)c1 | 32.1 µM (inactive) | 21.8 µM (inactive) | 32.9 µM (inactive) | 22.4 µM (inactive) | 39.4 µM (inactive) | 26.8 µM (inactive) | 37.8 µM (inactive) | 21.2 µM (inactive) | 24.3 µM (inactive) | 22.5 µM (inactive) | 20.8 µM (inactive) | 23.3 µM (inactive) | 14.9 µM (inactive) | 16.4 µM (inactive) | 18 µM | 14.9 µM (inactive) | 39.5 µM (inactive) | 17.9 µM (inactive) | – | –
2 | Nc1ccc2nc3ccc(N)cc3[n+](-c3ccccc3)c2c1 | 33.3 µM (inactive) | 7.78 µM (inactive) | 37.3 µM (inactive) | > 100 µM (inactive) | 29.9 µM (inactive) | > 100 µM (inactive) | 4.55 µM (inactive) | 6.4 µM (inactive) | 25.6 µM (inactive) | 26.4 µM (inactive) | 72.3 µM (inactive) | 60.7 µM (inactive) | 95.7 µM (inactive) | > 100 µM (inactive) | > 100 µM | 50.4 µM (inactive) | 34.5 µM (inactive) | > 100 µM (inactive) | > 100 µM (inactive) | –
3 | CC(=O)Oc1cc(Cl)c(C)c2c1[C@H]1CC[C@]3(C)[C@@H](OC(C)=O)CC[C@H]3[C@@H]1CC2 | > 100 µM (inactive) | 83.2 µM (inactive) | > 100 µM (inactive) | > 100 µM (inactive) | > 100 µM (inactive) | > 100 µM (inactive) | – | > 100 µM (inactive) | > 100 µM (inactive) | 54.6 µM (inactive) | > 100 µM (inactive) | > 100 µM (inactive) | > 100 µM (inactive) | – | 50.4 µM | > 100 µM (inactive) | – | > 100 µM (inactive) | – | > 100 µM (inactive)
4 | COc1cc(/C=N\O)nc(-c2ccccn2)c1 | 0.339 µM (active) | 1.18 µM (inactive) | 0.664 µM (active) | 1.3 µM (inactive) | 3.08 µM (inactive) | 0.195 µM (active) | 0.188 µM (active) | 0.222 µM (active) | 0.298 µM (active) | 0.301 µM (active) | 0.0923 µM (active) | 0.575 µM (active) | 0.179 µM (active) | 0.303 µM (active) | 0.092 µM | 1.6 µM (inactive) | – | > 30.8 µM (inactive) | 0.504 µM (active) | 0.363 µM (active)
5 | CC(C)N(C(C)C)S(=O)(=O)CC12CCC(C/C1=N\O)C2 (stereo not given) | > 100 µM (inactive) | > 100 µM (inactive) | > 100 µM (inactive) | – | > 100 µM (inactive) | > 100 µM (inactive) | > 100 µM (inactive) | > 100 µM (inactive) | > 100 µM (inactive) | > 100 µM (inactive) | > 100 µM (inactive) | > 100 µM (inactive) | > 100 µM (inactive) | > 100 µM (inactive) | > 100 µM | > 100 µM (inactive) | > 100 µM (inactive) | > 100 µM (inactive) | > 100 µM (inactive) | > 100 µM (inactive)
6 | CC(=O)N1CC(C)(C)c2c(C)c(O)c(C)c(C)c21 | > 100 µM (inactive) | > 100 µM (inactive) | > 100 µM (inactive) | > 100 µM (inactive) | > 100 µM (inactive) | > 100 µM (inactive) | > 100 µM (inactive) | > 100 µM (inactive) | > 100 µM (inactive) | > 100 µM (inactive) | > 100 µM (inactive) | > 100 µM (inactive) | > 100 µM (inactive) | – | > 100 µM | > 100 µM (inactive) | – | > 100 µM (inactive) | > 100 µM (inactive) | > 100 µM (inactive)
7 | O=C1CC(=O)NC(NNS(=O)(=O)c2ccccc2)=N1 | > 100 µM (inactive) | > 100 µM (inactive) | > 100 µM (inactive) | – | > 100 µM (inactive) | – | > 100 µM (inactive) | > 100 µM (inactive) | > 100 µM (inactive) | > 100 µM (inactive) | > 100 µM (inactive) | > 100 µM (inactive) | > 100 µM (inactive) | > 100 µM (inactive) | > 100 µM | > 100 µM (inactive) | > 100 µM (inactive) | > 100 µM (inactive) | > 100 µM (inactive) | > 100 µM (inactive)
8 | O=C(O)CN(CC(=O)O)Cc1ccn(-c2cccc(-n3ccc(CN(CC(=O)O)CC(=O)O)n3)n2)n1 | > 100 µM (inactive) | > 100 µM (inactive) | > 100 µM (inactive) | – | > 100 µM (inactive) | > 100 µM (inactive) | > 100 µM (inactive) | > 100 µM (inactive) | > 100 µM (inactive) | > 100 µM (inactive) | > 100 µM (inactive) | > 100 µM (inactive) | > 100 µM (inactive) | > 100 µM (inactive) | > 100 µM | 3.53 µM (inactive) | > 100 µM (inactive) | > 100 µM (inactive) | – | > 100 µM (inactive)
9 | O=C(Nn1c(-c2ccccc2)nc2ccccc2c1=O)c1ccc(O)cc1 | > 100 µM (inactive) | > 100 µM (inactive) | > 100 µM (inactive) | > 100 µM (inactive) | > 100 µM (inactive) | 61 µM (inactive) | > 100 µM (inactive) | > 100 µM (inactive) | > 100 µM (inactive) | > 100 µM (inactive) | > 100 µM (inactive) | > 100 µM (inactive) | > 100 µM (inactive) | – | > 100 µM | > 100 µM (inactive) | – | > 100 µM (inactive) | > 100 µM (inactive) | > 100 µM (inactive)
10 | CCOC(=O)C1C[C@H]2CO[C@H](c3ccccc3)N2C1=O (stereo not given in full) | > 100 µM (inactive) | > 100 µM (inactive) | > 100 µM (inactive) | – | > 100 µM (inactive) | > 100 µM (inactive) | > 100 µM (inactive) | > 100 µM (inactive) | > 100 µM (inactive) | > 100 µM (inactive) | > 100 µM (inactive) | > 100 µM (inactive) | > 100 µM (inactive) | > 100 µM (inactive) | > 100 µM | > 100 µM (inactive) | > 100 µM (inactive) | > 100 µM (inactive) | > 100 µM (inactive) | > 100 µM (inactive)
11 | CC(CO)CCNc1ncnc2c1ncn2CCC(=O)O (stereo not given) | > 100 µM (inactive) | > 100 µM (inactive) | > 100 µM (inactive) | > 100 µM (inactive) | > 100 µM (inactive) | > 100 µM (inactive) | > 100 µM (inactive) | > 100 µM (inactive) | > 100 µM (inactive) | > 100 µM (inactive) | > 100 µM (inactive) | > 100 µM (inactive) | > 100 µM (inactive) | > 100 µM (inactive) | – | > 100 µM (inactive) | – | > 100 µM (inactive) | > 100 µM (inactive) | > 100 µM (inactive)
